In patent US7033773B1, “Screening assays for G protein coupled receptor agonists and antagonists” (The General Hospital Corporation, priority 1997, dated 2006):
Where two headings read alike, the source gives them in different places. Where a SMILES comes first, the peptide text is derived from it. [ ]: non-standard residue; d: D form. Nle = CCCC[C@H](N)C(=O)O

Key:
[1] = biological target: T1, human PTH/PTHrP receptor (Homo sapiens, UniProt Q03431); assay: Urokinase-type plasminogen activator (u-PA) secretion bioassay in LLC-PK1 cells expressing human PTHR; details: AB45 cells (hPTHR + REV AB dominant-negative PKA inhibitor), 16 hr
T1 sequence (Q03431 27-593): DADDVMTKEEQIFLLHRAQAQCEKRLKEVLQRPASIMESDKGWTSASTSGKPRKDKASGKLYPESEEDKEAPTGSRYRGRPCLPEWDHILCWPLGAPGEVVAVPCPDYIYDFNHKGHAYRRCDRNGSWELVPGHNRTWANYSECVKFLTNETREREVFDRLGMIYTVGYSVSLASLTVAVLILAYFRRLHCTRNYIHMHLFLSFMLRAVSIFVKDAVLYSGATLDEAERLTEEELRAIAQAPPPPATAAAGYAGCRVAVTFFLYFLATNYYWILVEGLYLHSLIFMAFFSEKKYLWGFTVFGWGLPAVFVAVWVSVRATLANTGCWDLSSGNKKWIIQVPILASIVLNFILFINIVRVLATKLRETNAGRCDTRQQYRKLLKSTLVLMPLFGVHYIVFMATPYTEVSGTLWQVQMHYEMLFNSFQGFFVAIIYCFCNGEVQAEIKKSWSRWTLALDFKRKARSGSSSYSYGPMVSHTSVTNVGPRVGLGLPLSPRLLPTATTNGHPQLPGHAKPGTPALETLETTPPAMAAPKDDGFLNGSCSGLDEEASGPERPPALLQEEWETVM
Procedure: Cells were seeded into 96-well plates at a density of 6×10^4 cells/well and used the following day. The cells were washed once with 0.2 ml and then refed with 0.1 ml of prewarmed DMEM containing 0.05% BSA. After adding each stimulator, plates were returned to the incubator at 37° C. for 16 h. Conditioned medium (5 ul) then was transferred from each well to a clean microplate. […] Activity was expressed in Ploug units/well, using purified human urokinase (Calbiochem) as a standard.
Cells were incubated with the indicated peptides (1000 nM) for 16 hr before measurement of secreted u-PA present in the medium, which was expressed as a percentage of the activity measured in vehicle-treated controls. Values shown are means±SEM of triplicate determinations.

[2] = system: human PTH/PTHrP receptor; assay: Cytosolic free calcium (fura-2) in LLC-PK1 cells expressing human PTHR; details: other experiments, hPTHR-expressing LLC-PK1 cells
Procedure: Cytosolic free calcium was measured in fura 2AM-loaded confluent monolayers of cells.
Cytosolic free calcium was measured by dual fluorescence in cells loaded with the Ca^2+-sensitive intracellular probe fura-2. Cells were seeded onto glass coverslips at a density of 40,000-600,000/cm^2 and incubated for 2 days as described above. Coverslips were washed twice with PBS before loading in phosphate-free Buffer B containing 4 uM of fura-2/AM (Molecular Probes, Eugene, Oreg.) for 30 min at room temperature (22° C.). After washing twice with fura-free Buffer B, the coverslips were mounted in a cuvette containing 2 ml of phosphate-free Buffer B at 37° C. and the emission at 510 nm in response to alternating excitation at 340 and 380 nm was monitored using a ratiometric PTI Deltascan fluorescence spectrometer with excitation and emission bandwidths of 2 nm. After achieving a stable baseline, agonists were introduced by exchange into 2 ml of fresh buffer to which 10-20 ul of concentrated agonist stock (or vehicle alone) had been added. Peptide stocks were prepared in 0.1% trifluoroacetic acid, ionomycin and phorbol esters were dissolved in dimethyl sulfoxide and all other additives were prepared in water. Maximum and minimum fluorescence signals were obtained by exposure to modified buffers containing 1 uM ionomycin plus 20 mM calcium or 2 mM EGTA in the nominal absence of calcium, respectively, and autofluorescence was estimated from signals obtained in the presence of ionomycin plus 2.5 mM MnCl2.

[3] = biological target: T1, human PTH/PTHrP receptor; assay: Competitive radioligand (Scatchard) binding to human PTH/PTHrP receptors stably expressed in LLC-PK1 cells; set-up: transfected with a full-length human PTH/PTHrP receptor cDNA; expressed in transfected cells; details: Scatchard analysis, read-out: Apparent Kd
Procedure: FIGS. 1A-1B and 1C-1D. Competitive radioligand binding to human PTH/PTHrp receptors stably expressed in LLC-PK1 cells. LLC-PK1 cells stably expressing (FIGS. 1A-1B) 950,000 receptors/cell (HKRK B7) or (FIGS. 1C-1D) 280,000 receptors/cell (HKRK B28) were incubated with ^125I-[Nle^8,18,Tyr^34]bPTH(1-34) in binding buffer for 6 hr at 15° C. in the presence or absence of increasing concentrations of nonradioactive ligand. Scatchard plots are shown in the insets. Each point represents the mean± of triplicate determinations. Total radioligand bound ranged from 15,000-30,000 cpm/well, and nonspecific binding was 2-5% of total binding.
(§1) In brief, the cells were seeded into 24-well plates at a density of 2.5×10^5 cells/well and cultured for a further 2 days before study. Cell layers were rinsed with ice-cold Buffer A [50 mM Tris-HCl (pH 7.7), 100 mM NaCl, 2 mM CaCl2, 5 mM KCl, 0.5% FBS, and 5% heat-inactivated horse serum] and then incubated with ^125I-labeled [Nle^8,18, Tyr^34]bovine (b) PTH(1-34) (1×10^5 cpm/well), with or without unlabeled peptide, in 0.5 ml of Buffer A for 6 h in the cold room (2-8° C.). […] All reagents, unless otherwise specified, were obtained from Sigma (St. Louis, Mo.), and all isotopes were purchased from Dupont-New England Nuclear (Boston, Mass.).
Radioligand competition assays and Scatchard analyses for two representative cell lines, HKRK B7 and HKRK B28, which express 950,000 and 280,000 hPTHRs per cell, respectively, are shown in FIGS. 1A-1D. […] In each case, the Scatchard analysis was linear, consistent with a single class of high affinity binding sites. The subsequent example described below was conducted with two cell lines, which were chosen as representative of those expressing relatively high (HKRK B7) and low (HKRK B28) densities of hPTHRs, respectively.

[4] = biological target: T2, rat PTHR (Rattus norvegicus, UniProt P25961); assay: Competitive radioligand (Scatchard) binding to rat PTHRs expressed in LLC-PK1 cells; details: Scatchard analysis, read-out: Apparent Kd
T2 construct: expressed in transfected cells; host or cells: LLC-PK1 porcine renal epithelial cells (EW5; also EW29, AR-C38, AR-B44)
T2 sequence (P25961 27-591): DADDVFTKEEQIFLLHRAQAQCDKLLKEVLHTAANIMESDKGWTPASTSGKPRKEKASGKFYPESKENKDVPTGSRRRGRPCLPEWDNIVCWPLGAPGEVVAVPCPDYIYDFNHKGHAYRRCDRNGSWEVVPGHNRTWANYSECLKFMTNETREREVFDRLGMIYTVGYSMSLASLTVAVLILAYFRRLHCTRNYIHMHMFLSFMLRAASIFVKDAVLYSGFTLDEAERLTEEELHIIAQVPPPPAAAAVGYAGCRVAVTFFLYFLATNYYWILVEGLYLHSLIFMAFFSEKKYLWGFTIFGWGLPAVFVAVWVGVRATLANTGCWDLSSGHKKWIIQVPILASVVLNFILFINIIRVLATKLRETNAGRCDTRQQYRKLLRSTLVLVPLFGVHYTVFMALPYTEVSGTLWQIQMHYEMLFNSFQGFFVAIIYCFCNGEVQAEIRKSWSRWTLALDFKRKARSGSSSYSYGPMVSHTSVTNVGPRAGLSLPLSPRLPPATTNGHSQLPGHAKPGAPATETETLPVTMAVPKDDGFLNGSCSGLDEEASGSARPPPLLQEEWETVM
Procedure: as §1

Kd ([3]; HKRH C58 cells, 1030 x10^3 receptors/cell) | Kd ([3]; HKRK B5 cells, 840 x10^3 receptors/cell) | Kd ([3]; HKRK B7 cells, 950 x10^3 receptors/cell) | Kd ([3]; HKRK B28 cells, 280 x10^3 receptors/cell) | Kd ([3]; HKRK B54 cells, 1020 x10^3 receptors/cell) | Kd ([3]; HKRK B57 cells, 900 x10^3 receptors/cell) | Kd ([3]; HKRK B64 cells, 90 x10^3 receptors/cell) | Kd ([3]; HKRK C27 cells, 340 x10^3 receptors/cell) | Kd ([3]; HKRK C30 cells, 600 x10^3 receptors/cell) | Kd ([3]; HKRK C53 cells, 120 x10^3 receptors/cell) | Kd ([3]; HKRK C101 cells, 330 x10^3 receptors/cell) | Kd ([4]; EW5 cells, 320 x10^3 rat receptors/cell) | Kd ([4]; EW29 cells, 190 x10^3 rat receptors/cell) | SMILES | u-PA response in cAMP-resistant cells (in words) [1] | calcium responses to PKA/PKC activators [2]
 |  |  |  |  |  |  |  |  |  |  |  |  | CCCCCCCCCCCCCC(=O)O[C@@H]1[C@@H](C)[C@@]2(O)[C@@H](C=C(CO)C[C@]3(O)C(=O)C(C)=C[C@@H]23)[C@H]2C(C)(C)[C@]12OC(C)=O [TPA] | well-maintained | failed to elicit calcium responses
3.6 nM | 3.9 nM | 4.5 nM | 1.8 nM | 6.4 nM | 5.6 nM | 1.3 nM | 2.2 nM | 2.8 nM | 1.2 nM | 1.6 nM | 2.3 nM | 2.5 nM | CCCC[C@H](NC(=O)[C@H](CO)NC(=O)[C@H](CO)NC(=O)[C@H](CC(C)C)NC(=O)[C@H](Cc1c[nH]cn1)NC(=O)[C@H](CCCCN)NC(=O)CNC(=O)[C@H](CC(C)C)NC(=O)[C@H](CC(N)=O)NC(=O)[C@H](Cc1c[nH]cn1)NC(=O)[C@H](CCCC)NC(=O)[C@H](Cc1ccccc1)NC(=O)[C@H](CCC(N)=O)NC(=O)[C@@H](NC(=O)[C@H](CCC(=O)O)NC(=O)[C@H](CO)NC(=O)[C@@H](NC(=O)[C@H](C)N)C(C)C)[C@@H](C)CC)C(=O)N[C@@H](CCC(=O)O)C(=O)N[C@@H](CCCNC(=N)N)C(=O)N[C@H](C(=O)N[C@@H](CCC(=O)O)C(=O)N[C@@H](Cc1c[nH]c2ccccc12)C(=O)N[C@@H](CC(C)C)C(=O)N[C@@H](CCCNC(=N)N)C(=O)N[C@@H](CCCCN)C(=O)N[C@@H](CCCCN)C(=O)N[C@@H](CC(C)C)C(=O)N[C@@H](CCC(N)=O)C(=O)N[C@@H](CC(=O)O)C(=O)N[C@H](C(=O)N[C@@H](Cc1c[nH]cn1)C(=O)N[C@@H](CC(N)=O)C(=O)N[C@@H](Cc1ccc(O)cc1)C(N)=O)C(C)C)C(C)C [[Nle^8,18, Tyr^34]bPTH(1-34), [Nle^8,18, Tyr^34]bovine (b) PTH(1-34)] (H-AVSEIQF[Nle]HNLGKHLSS[Nle]ERVEWLRKKLQDVHNY-NH2; N-terminus assumed) |  | 
